According to patent US9221766B2, “Compounds as diacylglycerol acyltransferase inhibitors” (GlaxoSmithKline LLC, priority 2012, dated 2015):

These compounds were tested against T1, Human DGAT1 (Homo sapiens, UniProt O75907) (assay: human DGAT1 lipid extraction (LE) assay, inhibition of triacylglycerol product formation). Conditions: human DGAT1 microsomes from Sf9 cells, read-out: hDGAT LE IC50.
T1 construct: made in house; host or cells: Sf9 insect cells (baculovirus); microsomes used as enzyme
T1 sequence (O75907 1-488): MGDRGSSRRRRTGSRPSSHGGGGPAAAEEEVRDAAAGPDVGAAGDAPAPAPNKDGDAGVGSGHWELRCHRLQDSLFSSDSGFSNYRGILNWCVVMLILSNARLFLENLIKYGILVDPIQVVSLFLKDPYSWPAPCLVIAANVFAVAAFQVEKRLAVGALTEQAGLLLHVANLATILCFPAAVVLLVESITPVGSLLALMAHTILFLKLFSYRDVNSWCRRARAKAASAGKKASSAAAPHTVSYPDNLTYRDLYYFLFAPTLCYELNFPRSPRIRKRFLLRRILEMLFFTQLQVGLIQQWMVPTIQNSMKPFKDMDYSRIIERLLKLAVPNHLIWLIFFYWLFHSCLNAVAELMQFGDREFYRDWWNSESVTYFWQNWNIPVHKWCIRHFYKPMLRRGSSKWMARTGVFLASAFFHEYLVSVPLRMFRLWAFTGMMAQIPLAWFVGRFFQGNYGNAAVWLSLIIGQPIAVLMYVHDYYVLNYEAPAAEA
Assay type: biochemical
Method: Human DGAT1 was expressed in Sf9 insect cells using a baculovirus expression system. Microsomes were prepared and used as enzyme for in vitro inhibition testing in either of two formats measuring production of coenzyme A or tridecanoylglycerol product, respectively. All steps were performed at 21-23° C. All data for DGAT1 inhibition by test compounds were collected under conditions where product formation was linear with reaction time.
For inhibition of triacylglycerol product formation, 11 uL reactions were run in white Polyplate-384 (PerkinElmer6007300) starting with a 30 minute pre-reaction incubation of 5 uL of 2.2× enzyme and 1 uL of 100% DMSO containing test compound or control compound, {4-[4-(4-amino-7,7-dimethyl-7H-pyrimido[4,5-b][1,4]oxazin-6-yl)phenyl]cyclohexyl}acetic acid. Some assays were performed with inclusion of didecanoylglycerol in the pre-reaction incubation of test compounds and enzyme. Reactions were initiated after 30 minute pre-reaction incubation via addition of 5 uL of 2.2× substrate. Final reaction conditions consisted of 50 mM HEPES pH 7.5, 2 mM MgCl2, 1 mM CHAPS, 25 uM didecanoylglycerol, 0.5 uM decanoyl-CoA, 0.3 nCi/uL [^14C-]decanoyl-CoA or 0.5 nCi/uL [^3H]-decanoyl-CoA, 0.05-4 ug/mL microsomal protein, and 1% DMSO. Following 60 minute reaction incubation, reactions were stopped with 40 uL of 45% isopropanol and 50 mM sodium carbonate in water and mixed. Extraction of tridecanoylglycerol product was accomplished via addition of 30 uL Microscint-E (Perkin Elmer) and 2 hours of incubation (sealed). Plates were read on a Microbeta Microplate reader Inhibition was normalized to controls containing DMSO or 10 uM {4-[4-(4-amino-7,7-dimethyl-7H-pyrimido[4,5-b][1,4]oxazin-6-yl)phenyl]cyclohexyl}acetic acid. IC50s were fitted using GraphPad Prism to a sigmoidal dose response.

`O=C(O)CC1(CC(F)(F)F)CCc2cc(-c3ccc(Nc4ccc(C(F)(F)F)nc4)cn3)ccc2C1=O` (single isomer, unassigned) [Example 1, 2-(1-Oxo-2-(2,2,2-trifluoroethyl)-6-(5-(6-(trifluoromethyl)pyridin-3-ylamino)pyridin-2-yl)-1,2,3,4-tetrahydronaphthalen-2-yl)acetic acid] and `CCC1(CC(=O)O)CCc2cc(-c3ccc(Nc4ccc(C(F)(F)F)nc4)cn3)ccc2C1=O` (single isomer, unassigned) [Example 4, 2-(2-Ethyl-1-oxo-6-(5-(6-(trifluoromethyl)pyridin-3-ylamino)pyridin-2-yl)-1,2,3,4-tetrahydronaphthalen-2-yl)acetic acid] cannot be ordered by IC50: no more than 100 nM for the first, no more than 100 nM for the second.

`O=C(O)CC1(CC(F)(F)F)CCc2cc(-c3ccc(Nc4ccc(Cl)cc4)cn3)ccc2C1=O` (single isomer, unassigned) [Example 2, 2-(6-(5-(4-Chlorophenylamino)pyridin-2-yl)-1-oxo-2-(2,2,2-trifluoroethyl)-1,2,3,4-tetrahydronaphthalen-2-yl)acetic acid] and `Cc1ccc(Nc2ccc(-c3ccc4c(c3)CCC(CC(=O)O)(CC(F)(F)F)C4=O)nc2)cc1` (single isomer, unassigned) [Example 9, 2-(1-oxo-6-(5-(p-tolylamino)pyridin-2-yl)-2-(2,2,2-trifluoroethyl)-1,2,3,4-tetrahydronaphthalen-2-yl)acetic acid] cannot be ordered by IC50: no more than 100 nM for the first, 100 to 500 nM for the second.

Compared with `CC1(CC(=O)O)CCc2cc(-c3ccc(Nc4ccc(C(F)(F)F)nc4)cn3)ccc2C1=O` (single isomer, unassigned) [Example 3, 2-(2-Methyl-1-oxo-6-(5-(6-(trifluoromethyl)pyridin-3-ylamino)pyridin-2-yl)-1,2,3,4-tetrahydronaphthalen-2-yl)acetic acid], `CCC1(CC(=O)O)CCc2cc(-c3ccc(Nc4ccc(C(F)(F)F)nc4)cn3)ccc2C1=O` (single isomer, unassigned) [Example 5, 2-(2-ethyl-1-oxo-6-(5-(6-(trifluoromethyl)pyridin-3-ylamino)pyridin-2-yl)-1,2,3,4-tetrahydronaphthalen-2-yl)acetic acid] is lower in IC50: 500 to 10000 nM for the first, 100 to 500 nM for the second. The second is the more potent here.

`O=C(O)CC1(CC(F)(F)F)CCc2cc(-c3ccc(Nc4ccc(Cl)cc4)cn3)ccc2C1=O` (single isomer, unassigned) [Example 6, 2-(6-(5-(4-chlorophenylamino)pyridin-2-yl)-1-oxo-2-(2,2,2-trifluoroethyl)-1,2,3,4-tetrahydronaphthalen-2-yl)acetic acid] and `O=C(O)CC1(CC(F)(F)F)CCc2cc(-c3ccc(Nc4cccc(Cl)c4)cn3)ccc2C1=O` (single isomer, unassigned) [Example 11, 2-(6-(5-(3-chlorophenylamino)pyridin-2-yl)-1-oxo-2-(2,2,2-trifluoroethyl)-1,2,3,4-tetrahydronaphthalen-2-yl)acetic acid] cannot be ordered by IC50: no more than 100 nM for the first, 100 to 500 nM for the second.

`O=C(O)CC1(CC(F)(F)F)CCc2cc(-c3ccc(Nc4ccc(Cl)cn4)cn3)ccc2C1=O` (single isomer, unassigned) [Example 7, 2-(6-(5-(5-chloropyridin-2-ylamino)pyridin-2-yl)-1-oxo-2-(2,2,2-trifluoroethyl)-1,2,3,4-tetrahydronaphthalen-2-yl)acetic acid] and `Cc1ccc(Nc2ccc(-c3ccc4c(c3)CCC(CC(=O)O)(CC(F)(F)F)C4=O)nc2)nc1` (single isomer, unassigned) [Example 12, 2-(6-(5-(5-methylpyridin-2-ylamino)pyridin-2-yl)-1-oxo-2-(2,2,2-trifluoroethyl)-1,2,3,4-tetrahydronaphthalen-2-yl)acetic acid] cannot be ordered by IC50: no more than 100 nM for the first, no more than 100 nM for the second.

`O=C(O)CC1(CC(F)(F)F)CCc2cc(-c3ccc(Nc4ccc(Cl)cn4)cn3)ccc2C1=O` (single isomer, unassigned) [Example 8, 2-(6-(5-(5-chloropyridin-2-ylamino)pyridin-2-yl)-1-oxo-2-(2,2,2-trifluoroethyl)-1,2,3,4-tetrahydronaphthalen-2-yl)acetic acid] and `Cc1ccc(Nc2ccc(-c3ccc4c(c3)CCC(CC(=O)O)(CC(F)(F)F)C4=O)nc2)nc1` (single isomer, unassigned) [Example 13, 2-(6-(5-(5-methylpyridin-2-ylamino)pyridin-2-yl)-1-oxo-2-(2,2,2-trifluoroethyl)-1,2,3,4-tetrahydronaphthalen-2-yl)acetic acid] cannot be ordered by IC50: no more than 100 nM for the first, 100 to 500 nM for the second.

`O=C(O)CC1(CC(F)(F)F)CCc2cc(-c3ccc(Nc4ccc(F)c(F)c4)cn3)ccc2C1=O` (single isomer, unassigned) [Example 10, 2-(6-(5-(3,4-difluorophenylamino)pyridin-2-yl)-1-oxo-2-(2,2,2-trifluoroethyl)-1,2,3,4-tetrahydronaphthalen-2-yl)acetic acid] and `Cc1ccc(Nc2ccc(-c3ccc4c(c3)CCC(CC(=O)O)(CC(F)(F)F)C4=O)nn2)cn1` (single isomer, unassigned) [Example 22, 2-(6-(6-(6-methylpyridin-3-ylamino)pyridazin-3-yl)-1-oxo-2-(2,2,2-trifluoroethyl)-1,2,3,4-tetrahydronaphtha-len-2-yl)acetic acid] cannot be ordered by IC50: no more than 100 nM for the first, no more than 100 nM for the second.

`O=C(O)CC1(CC(F)(F)F)CCc2cc(-c3cnc(Nc4ccc(C(F)(F)F)nc4)cn3)ccc2C1=O` (single isomer, unassigned) [Example 14, 2-(1-Oxo-2-(2,2,2-trifluoroethyl)-6-(5-(6-(trifluoromethyl)pyridin-3-ylamino)pyrazin-2-yl)-1,2,3,4-tetrahydro-naphthalen-2-yl)acetic acid] and `Cc1ccc(Nc2cnc(-c3ccc4c(c3)CCC(CC(=O)O)(CC(F)(F)F)C4=O)cn2)nc1` (single isomer, unassigned) [Example 16, 2-(6-(5-(5-methylpyridin-2-ylamino)pyrazin-2-yl)-1-oxo-2-(2,2,2-trifluoroethyl)-1,2,3,4-tetrahydronaphthalen-2-yl)acetic acid] cannot be ordered by IC50: no more than 100 nM for the first, 100 to 500 nM for the second.

Compared with `O=C(O)CC1(CC(F)(F)F)CCc2cc(-c3cnc(Nc4ccc(C(F)(F)F)nc4)cn3)ccc2C1=O` (single isomer, unassigned) [Example 15, 2-(1-oxo-2-(2,2,2-trifluoroethyl)-6-(5-(6-(trifluoromethyl)pyridin-3-ylamino)pyrazin-2-yl)-1,2,3,4-tetrahydronaphthalen-2-yl)acetic acid], `O=C(O)CC1(CC(F)(F)F)CCc2cc(-c3cnc(Nc4ccc(Cl)cn4)cn3)ccc2C1=O` (single isomer, unassigned) [Example 17, 2-(6-(5-(5-chloropyridin-2-ylamino)pyrazin-2-yl)-1-oxo-2-(2,2,2-trifluoroethyl)-1,2,3,4-tetrahydronaphthalen-2-yl)acetic acid] is lower in IC50: 500 to 10000 nM for the first, 100 to 500 nM for the second. The second is the more potent here.

`O=C(O)CC1(CC(F)(F)F)CCc2cc(-c3cnc(Nc4ccc(Cl)cn4)cn3)ccc2C1=O` (single isomer, unassigned) [Example 18, 2-(6-(5-(5-chloropyridin-2-ylamino)pyrazin-2-yl)-1-oxo-2-(2,2,2-trifluoroethyl)-1,2,3,4-tetrahydronaphthalen-2-yl)acetic acid] and `O=C(O)CC1(CC(F)(F)F)CCc2cc(-c3cnc(Nc4ccc5c(c4)OCO5)cn3)ccc2C1=O` (single isomer, unassigned) [Example 19, 2-(6-(5-(benzo[d][1,3]dioxol-5-ylamino)pyrazin-2-yl)-1-oxo-2-(2,2,2-trifluoroethyl)-1,2,3,4-tetrahydronaphthalen-2-yl)acetic acid] fall in the same range of IC50: 100 to 500 nM for the first, 100 to 500 nM for the second.

Compared with `O=C(O)CC1(CC(F)(F)F)CCc2cc(-c3cnc(Nc4ccc5c(c4)OCO5)cn3)ccc2C1=O` (single isomer, unassigned) [Example 20, 2-(6-(5-(benzo[d][1,3]dioxol-5-ylamino)pyrazin-2-yl)-1-oxo-2-(2,2,2-trifluoroethyl)-1,2,3,4-tetrahydronaphthalen-2-yl)acetic acid], `O=C(O)CC1(CC(F)(F)F)CCc2cc(-c3ccc(Nc4cccc(Cl)c4)nn3)ccc2C1=O` (single isomer, unassigned) [Example 21, 2-(6-(6-((3-chlorophenyl)amino)pyridazin-3-yl)-1-oxo-2-(2,2,2-trifluoroethyl)-1,2,3,4-tetrahydronaphthalen-2-yl)acetic acid] is lower in IC50: 500 to 10000 nM for the first, no more than 100 nM for the second.
